Measured values published in article PMC10354055, “An optimized Nurr1 agonist provides disease-modifying effects in Parkinson’s disease models” (Nature Communications, 2023).
Where “and” joins values, the source holds several entries; their conditions need not be identical. Identical values can stand only once.

Columns and labels:
[1] = biological target: Nurr1-LBD (Homo sapiens, UniProt P43354); test: [3H]-CQ radioligand competition binding assay
Method: Saturation and competition assays were performed as previously described. For saturation assay, 0.2 µM of Nurr1-LBD and 125-10,000 nM of [^3H]-CQ were incubated in binding buffer (20 mM sodium acetate buffer (pH 5.2)) at 4 °C overnight. […] Assay mixtures were applied to GF/B filters (Brandel Inc.) to capture Nurr1-LBD bounded ligands. […] All graphs and IC50 values were generated using the non-linear regression program in GraphPad Prism version 8.0.2.

[2] = test system: MN9D cells; test: Cell viability, MTT reduction, MPP+-treated MN9D cells; type: cell-based, mouse
Method: Cell viability was determined using 3-(4,5-dimethylthiazol-2-yl)-2,5-diphenyltetrazolium bromide (MTT) as previously described[60]. Briefly, cells were incubated with 5 mg/ml of MTT (Sigma-Aldrich) solution for 3.5 h at 37 °C. MTT formazan crystals were dissolved in 10 times the volume of MTT solvent (4 mM HCl and 0.1% Nonidet P-40 in isopropanol) and the absorbance from the generated blue formazan was measured at 570 nm after 15 min incubation at room temperature. Cell viability was calculated as a percentage (%) of MTT reduction relative to vehicle control.

[3] = test system: MPTP-induced male mice; test: Rotarod, sub-chronic MPTP-induced PD model mice; type: in vivo, mouse
Method: (§1) MPTP (Sigma-Aldrich) was intraperitoneally (i.p.) injected (30 mg/kg) for 5 days (Day 1-5). […] To test dyskinetic involuntary behavior, an L-DOPA injected group was included, which received 50 mg/kg of L-DOPA and 15 mg/kg of benserazide (Sigma-Aldrich) (i.p.) for 16 days (Day 1–16). All compounds were administered 6 h post-MPTP injection to avoid any effect of compounds on the MPTP metabolism in the brain. Motor and non-motor related behavior tests were performed on the following days as described in Fig. 4a in an assessor- and observer-blinded fashion. Pre-training and baseline setup for motor-related behaviors were performed 3 days prior to the injections. Mice were sacrificed and subjected to immunohistochemistry. Mice were housed at the Animal Care Facilities of McLean Hospital under a 12-h light/12-h dark cycle, ambient temperature and humidity. Animals were handled in accordance with McLean Hospital’s Institutional Animal Care and Use Committee (Protocol #: 2015N000002) and followed National Institutes of Health guidelines.
(§2) Mice were pre-trained on an automated 5-lane rotarod unit (10 rpm, 3 min) for 2 days and the baseline was measured (10 rpm, 90 sec) before the rotarod test (3 days before the MPTP injection or the first rotarod test at week 2). Rotarod measurements were performed using an accelerating protocol, accelerated smoothly from 2 to 30 rpm for 5 min. Time on the rotating rod was measured automatically by placing a trip switch under the floor beneath the rotating drum.

[4] = test system: MPTP-induced male mice; test: Cylinder test, MPTP-induced PD model mice; type: in vivo, mouse
Method: as §1
Mice were placed in a transparent plastic cylinder (15.5 cm high, 12.7 cm diameter) with a mirror behind it. Spontaneous activity was recorded and measured as counting the number of rearing events for 3 min session. A rear was considered only when the mouse touched the wall of the cylinder with its forelimb paws while standing on its hindlimbs (vertical movement) to count meaningful physiological movements.

[5] = test system: AAV-αSyn-induced male mice; test: Rotarod, AAV-αSyn-induced PD model mice; type: in vivo, mouse; conditions: αSynWT and αSynA53T mice; CQ 40, 4A7C-301 5 mg/kg/day i.p.
Description: (§3) Adeno-associated viruses (AAVs) expressing GFP only or αSyn (wild-type or A53T) were kindly provided by Dr. Yoon Seong Kim from the University of Central Florida. Recombinant AAV vectors were produced using modified pAAV-IRES-hrGFP (Agilent) to express wild-type and mutant human αSyn under control of the CMV promoter. Viral particles (AAV2) were produced at the University of Iowa Viral Vector Core according to standard operating procedures (https://medicine.uiowa.edu/vectorcore/). […] AAV vectors were delivered into the substantia nigra unilaterally by stereotaxic surgery.
as §2

[6] = test system: AAV-αSyn-induced male mice; test: IHC/stereology of TH+ and NeuN+ neurons and TH+ fibers, AAV-αSyn-induced mice; type: in vivo, mouse
Description: as §3
Images were acquired using a KEYENCE microscope and quantified as the number or optical density of immunoreactive cells using ImageJ software.
The numbers of TH^+ DA neurons, NeuN^+ neurons, pS129 αSyn^+ cells in the SN and Iba-1^+ microglia in the SN and striatum were stereologically counted in six coronal sections (30 µm thickness) taken every 6th section (180 µm intervals) for each brain. The boundaries of the SN and striatum were delimited at low magnification (4X) to estimate each total area. Immunoreactive cells were counted with images taken at high magnification (×40) by a single blinded investigator. The group mean of the total number of immunoreactive cells from each brain was transformed as percentage of the number in the control group (%). For AAV-αSyn-induced mice, the group mean of the total number of cells in the ipsilateral side was transformed as a percentage of that observed in the contralateral side.

[7] = test system: AAV-αSyn-induced male mice; test: Dopamine ELISA in SN and STR, AAV-αSyn-injected mice; type: in vivo, mouse
Description: as §3
For MPTP-induced mice, the left hemisphere of each group (n = 5) was used for analysis and compared to the vehicle-treated group (VEH). For AAV-αSyn-injected mouse model, the viral vector injected side (left hemisphere; ipsilateral) of each group (n = 3) was compared to the non-injected side (right hemisphere; contralateral).

[8] = CQ 40, 4A7C-301 5, L-DOPA 50 mg/kg/day, i.p., 16 days

Nurr1-LBD, sequence (P43354 360-595 limits assumed, species assumed): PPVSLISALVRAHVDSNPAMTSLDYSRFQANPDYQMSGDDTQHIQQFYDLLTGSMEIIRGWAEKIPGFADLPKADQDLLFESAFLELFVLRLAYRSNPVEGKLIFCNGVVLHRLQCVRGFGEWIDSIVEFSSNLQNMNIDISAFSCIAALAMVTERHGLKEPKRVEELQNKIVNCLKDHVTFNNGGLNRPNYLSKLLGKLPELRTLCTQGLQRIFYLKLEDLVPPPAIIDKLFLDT

For `CCN1CCN(c2cc(N3CCN(CC)CC3)nc(NCCNc3ccnc4cc(Cl)ccc34)n2)CC1` [4A7C-301, N^1-(4,6-bis(4-ethylpiperazin-1-yl)pyrimidin-2-yl)-N^2-(7-chloroquinolin-4-yl)ethane-1,2-diamine], the “% of Specific binding” value ([1]; Fig. 1h, competitor conc. 0.0001 (µM)) was 97.5500% and 87.3600% and 114.0900%, the “% of Specific binding” value ([1]; Fig. 1h, competitor conc. 0.001 (µM)) was 93.3315% and 98.5361% and 111.1323% and the “% of Specific binding” value ([1]; Fig. 1h, competitor conc. 0.01 (µM)) was 98.5241% and 100.1201% and 98.1018%. The “% of Specific binding” value ([1]; Fig. 1h, competitor conc. 0.1 (µM)) was 94.8655% and 104.0393% and 99.1513%, the “% of Specific binding” value ([1]; Fig. 1h, competitor conc. 1 (µM)) was 96.7105% and 99.4183% and 101.5113% and the “% of Specific binding” value ([1]; Fig. 1h, competitor conc. 10 (µM)) was 93.5241% and 103.1201% and 98.1018%. The “% of Specific binding” value ([1]; Fig. 1h, competitor conc. 100 (µM)) was 102.0642% and 94.9839% and 98.3253%, the “% of Specific binding” value ([1]; Fig. 1h, competitor conc. 1000 (µM)) was 95.6857% and 99.8470% and 98.1514% and the “% of Specific binding” value ([1]; Fig. 1h, competitor conc. 10000 (µM)) was 97.6484% and 92.6051% and 102.8033%. The “% of Specific binding” value ([1]; Fig. 1h, competitor conc. 100000 (µM)) was 94.7542% and 97.7292% and 100.6669%, the “% of Specific binding” value ([1]; Fig. 1h, competitor conc. 1000000 (µM)) was 94.8500% and 98.0088% and 99.1887% and the IC50 ([1]; competition with [3H]-CQ, Fig. 1h) was 48.2 nM and 50 nM. For the same compound, the “binding affinity for Nurr1-LBD relative to CQ” value ([1]; from radioligand and TR-FRET IC50s) was 20 fold and ~ 20 fold, the “MTT reduction (%)” value ([2]; Fig. S1f, with MPP+, conc. 0.1 µM, replicates) was 55.1664% and 54.641% and 56.7426% and the “MTT reduction (%)” value ([2]; Fig. S1f, with MPP+, conc. 0.5 µM, replicates) was 58.8441% and 58.3187% and 60.4203%. The “MTT reduction (%)” value ([2]; Fig. S1f, with MPP+, conc. 1 µM, replicates) was 62.5219% (2×) and 61.4711%, the “MTT reduction (%)” value ([2]; Fig. S1f, with MPP+, conc. 5 µM, replicates) was 60.9457% and 62.5219% and 63.0473% and the “MTT reduction (%)” value ([2]; Fig. S1f, with MPP+, conc. 10 µM, replicates) was 61.9965% and 61.4711% and 63.0473%. The “MTT reduction (%)” value ([2]; Fig. S3c, with MPP+, 0.1 µM) was 54.8913% and 57.0652% and 55.4348%, the “MTT reduction (%)” value ([2]; Fig. S3c, with MPP+, 0.5 µM) was 59.2391% and 59.7826% and 60.3261% and the “MTT reduction (%)” value ([2]; Fig. S3c, with MPP+, 1 µM) was 63.0435% and 64.1304% and 62.5%. The “MTT reduction (%)” value ([2]; Fig. S3c, with MPP+, 5 µM) was 63.587% and 61.9565% and 64.6739%, the “MTT reduction (%)” value ([2]; Fig. S3c, with MPP+, 10 µM) was 63.587% and 61.9565% and the “MTT reduction (%)” value ([2]; Fig. S3e, MPP+, Control, CQ 100 µM, 4A7C-301 1 µM) was 68.2632% and 62.1053% and 68.2105% and 63.0526%. The “MTT reduction (%)” value ([2]; Fig. S3e, MPP+, Nurr1 KD, CQ 100 µM, 4A7C-301 1 µM) was 31.8421% and 30.5263% and 31.5789% and 29.7368%, the “MTT reduction (%)” value ([2]; Fig. S3e, MPP+, Nurr1 OE, CQ 100 µM, 4A7C-301 1 µM) was 85.4211% and 91.8947% and 89.4737% and 88.2632% and the “motor function, rotarod (in words)” value [3, 8] was “significantly rescued”. For the same compound, the “Latency to fall” value ([3]; Figure 4b, MPTP-induced mice, individual animal values) was 133.23 s and 202.2 s and 133.57 s and 139.3 s and 213.2 s and 211.5 s and 122.9 s and 231.93 s, the “motor function, cylinder test (in words)” value [4, 8] was “significantly rescued” and the Number of rearing ([4]; Figure 4d, MPTP-induced mice, individual animal values) was 34 and 51 and 29 and 33 and 22 and 71 and 46. For the same compound, the “motor deficits, rotarod (latency to fall) (in words)” value [5] was “improved motor deficits”, the “loss of TH+ and NeuN+ neurons and fibers (in words)” value ([6]; αSynA53T-mice) was “significantly prevented” and the “loss of TH+ and NeuN+ neurons and TH+ fibers (in words)” value ([6]; αSynWT-mice) was “partially prevented”. The “DA level (% of contralateral side)” value ([7]; Supplementary Figure S10e, αSynA53T) was 52.259 % of contralateral side and 51.869 % of contralateral side and 51.727 % of contralateral side, the “DA level (% of contralateral side)” value ([7]; Supplementary Figure S10e, αSynWT) was 78.777 % of contralateral side and 81.036 % of contralateral side and 79.879 % of contralateral side and the “DA level (% of contralateral side)” value ([7]; Supplementary Figure S10f, αSynA53T) was 55.117 % of contralateral side and 54.305 % of contralateral side and 55.007 % of contralateral side. The “DA level (% of contralateral side)” value ([7]; Supplementary Figure S10f, αSynWT) was 77.063 % of contralateral side and 74.376 % of contralateral side and 74.108 % of contralateral side, the “DA levels (in words)” value ([7]; αSynA53T-mice) was “increased” and the “DA levels in the SN and STR (in words)” value ([7]; αSynWT-mice) was “significantly increased”.
